Results reported in patent publication US20130178475A1, “sGC STIMULATORS” (IRONWOOD PHARMACEUTICALS, INC., priority 2010, published 2013).

Biological target: T1, soluble guanylate cyclase (sGC) (Homo sapiens, UniProt Q02108+Q02153)
T1 construct: endogenously expressing soluble guanylate cyclase (sGC); endogenous in cells; host or cells: HEK293
T1 sequence (Q02153 1-619): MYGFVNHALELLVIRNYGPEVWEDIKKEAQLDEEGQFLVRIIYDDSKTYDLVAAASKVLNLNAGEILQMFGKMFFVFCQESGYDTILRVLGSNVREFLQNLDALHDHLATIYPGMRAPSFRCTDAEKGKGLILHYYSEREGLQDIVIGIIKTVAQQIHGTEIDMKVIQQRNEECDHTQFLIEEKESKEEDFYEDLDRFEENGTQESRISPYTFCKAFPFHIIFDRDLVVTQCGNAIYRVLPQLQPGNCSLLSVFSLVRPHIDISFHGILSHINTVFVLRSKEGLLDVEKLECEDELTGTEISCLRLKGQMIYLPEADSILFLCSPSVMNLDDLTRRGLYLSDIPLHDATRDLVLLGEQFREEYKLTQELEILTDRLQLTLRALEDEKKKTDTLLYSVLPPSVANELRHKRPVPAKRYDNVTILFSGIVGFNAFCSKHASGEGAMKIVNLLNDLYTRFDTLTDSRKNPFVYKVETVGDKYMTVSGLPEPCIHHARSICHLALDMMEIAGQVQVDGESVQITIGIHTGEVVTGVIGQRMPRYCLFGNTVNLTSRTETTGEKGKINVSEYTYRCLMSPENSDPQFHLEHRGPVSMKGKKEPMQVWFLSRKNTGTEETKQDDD
T1 sequence (Q02108 1-690): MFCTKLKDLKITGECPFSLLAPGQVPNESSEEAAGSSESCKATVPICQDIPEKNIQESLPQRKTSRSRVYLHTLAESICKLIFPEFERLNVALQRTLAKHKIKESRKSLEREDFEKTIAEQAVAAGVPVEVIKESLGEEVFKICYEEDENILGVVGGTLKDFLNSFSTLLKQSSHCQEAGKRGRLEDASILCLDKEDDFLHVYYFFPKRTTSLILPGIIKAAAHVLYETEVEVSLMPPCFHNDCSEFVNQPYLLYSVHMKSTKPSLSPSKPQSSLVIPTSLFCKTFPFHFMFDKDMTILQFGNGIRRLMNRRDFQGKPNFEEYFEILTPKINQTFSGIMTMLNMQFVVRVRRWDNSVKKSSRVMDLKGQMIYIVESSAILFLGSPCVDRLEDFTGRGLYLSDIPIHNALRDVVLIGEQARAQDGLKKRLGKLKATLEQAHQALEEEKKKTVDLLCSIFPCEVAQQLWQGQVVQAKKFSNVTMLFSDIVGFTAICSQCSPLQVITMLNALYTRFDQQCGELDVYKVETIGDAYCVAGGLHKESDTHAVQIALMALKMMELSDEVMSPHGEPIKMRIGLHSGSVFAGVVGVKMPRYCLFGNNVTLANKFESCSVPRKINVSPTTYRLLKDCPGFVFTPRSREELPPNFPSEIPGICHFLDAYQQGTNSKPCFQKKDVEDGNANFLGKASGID
Assay: sGC-HEK-cGMP assay
Type: cell-based
Details: HEK293 cells, 10 min incubation, intracellular cGMP by LC/MS; for Increase in cGMP Concentration Tested at 10 μM in HEK Assay: test compound 10 μM; for Increase in cGMP Concentration Tested at 30 μM in HEK Assay: test compound 30 μM
Description: Human embryonic kidney cells (HEK293), endogenously expressing soluble guanylate cyclase (sGC), were used to evaluate the activity of test compounds. Compounds stimulating the sGC receptor should cause an increase in the intracellular concentration of cGMP. […] Cells were then incubated for 15 minutes at 37° C. with 0.5 mM 3-isobutyl-1-methylxanthine (2004). Test article was then added to the assay mixture (2 μL) and incubated at 37° C. for 10 minutes. After the 10 minute incubation, the assay mixture was aspirated and 0.1M HCl (2004) was added to the cells. The plate was incubated at 4° C. for 30 minutes in the 0.1M HCl to stop the reaction and lyse the cells. The plates were then centrifuged at 1,200 g for 5 minutes at room temperature. Supernatants were collected and transferred to a new flat bottom 96 well plate for analysis. Vehicle controls were carried out using DMSO (1%). A known sGC stimulator, BAY 41-2272, was used as the positive control.
Samples were diluted with an equal volume of 1 M Ammonium Acetate (pH 7) to neutralize samples for better chromatography. A 2×cGMP standard curve was prepared in 0.1 M HCl and then diluted with an equal volume of 1 M Ammonium Acetate, with the following final concentrations in nM: 1024, 512, 256, 128, 64, 32, 16, 8, 4, 2, 1.
cGMP concentrations were determined from each sample using the LC/MS conditions (Table 2 below) and calculated standard curve. EC50 values were calculated from concentration-response curves generated with GraphPad Prism Software.

Structure (SMILES)	Increase in cGMP Concentration Tested at 10 μM in HEK Assay	Increase in cGMP Concentration Tested at 30 μM in HEK Assay
Fc1ccccc1Cn1nc(-c2ncccn2)c2c1CCC2 [Compound I-2]	C (C represents an increase ranging from 10 fold to less than 20 fold)	D (D represents an increase ranging from 20 fold to less than 50 fold)
Nc1nc(N)nc(-c2nn(Cc3ccccc3F)c3c2CCC3)n1 [Compound I-4]	A (A represents no increase or an increase ranging from more than 0 fold to less than 5 fold)	A (A represents no increase or an increase ranging from more than 0 fold to less than 5 fold)
COc1cccc(Cn2nc(-c3ncccn3)c3c2CCCC3)c1 [Compound I-5]	B (B represents an increase ranging from 5 fold to less than 10 fold)	C (C represents an increase ranging from 10 fold to less than 20 fold)
Fc1ccc(Cn2nc(-c3ncccn3)c3c2CCCC3)cc1 [Compound I-6]	A (A represents no increase or an increase ranging from more than 0 fold to less than 5 fold)	A (A represents no increase or an increase ranging from more than 0 fold to less than 5 fold)
Fc1cccc(Cn2nc(-c3ncccn3)c3c2CCCC3)c1 [Compound I-7]	C (C represents an increase ranging from 10 fold to less than 20 fold)	D (D represents an increase ranging from 20 fold to less than 50 fold)
N#Cc1ccccc1Cn1nc(-c2ncccn2)c2c1CCCC2 [Compound I-8]	C (C represents an increase ranging from 10 fold to less than 20 fold)	D (D represents an increase ranging from 20 fold to less than 50 fold)
N#Cc1cccc(Cn2nc(-c3ncccn3)c3c2CCCC3)c1 [Compound I-9]	A (A represents no increase or an increase ranging from more than 0 fold to less than 5 fold)	B (B represents an increase ranging from 5 fold to less than 10 fold)
c1cnc(-c2nn(Cc3cccc4ccsc34)c3c2CCCC3)nc1 [Compound I-10]	B (B represents an increase ranging from 5 fold to less than 10 fold)	B (B represents an increase ranging from 5 fold to less than 10 fold)
c1cnc(-c2nn(Cc3cccc4ccccc34)c3c2CCCC3)nc1 [Compound I-11]	A (A represents no increase or an increase ranging from more than 0 fold to less than 5 fold)	A (A represents no increase or an increase ranging from more than 0 fold to less than 5 fold)
Nc1nc(-c2nn(Cc3ccccc3F)c3c2CCCC3)nc(N)c1N [Compound I-12]	A (A represents no increase or an increase ranging from more than 0 fold to less than 5 fold)	A (A represents no increase or an increase ranging from more than 0 fold to less than 5 fold)
COC(=O)Nc1c(N)nc(-c2nn(Cc3ccccc3F)c3c2CCCC3)nc1N [Compound I-13]	A (A represents no increase or an increase ranging from more than 0 fold to less than 5 fold)	A (A represents no increase or an increase ranging from more than 0 fold to less than 5 fold)
Fc1ccccc1Cn1nc(-c2ncccn2)c2c1CCSC2 [Compound I-15]	C (C represents an increase ranging from 10 fold to less than 20 fold)	C (C represents an increase ranging from 10 fold to less than 20 fold)
CC1(C)CCCc2c(-c3ncccn3)nn(Cc3ccccc3F)c21 [Compound I-16]	A (A represents no increase or an increase ranging from more than 0 fold to less than 5 fold)	B (B represents an increase ranging from 5 fold to less than 10 fold)
CC1(C)CCc2c(c(-c3ncccn3)nn2Cc2ccccc2F)C1 [Compound I-17]	B (B represents an increase ranging from 5 fold to less than 10 fold)	A (A represents no increase or an increase ranging from more than 0 fold to less than 5 fold)
Fc1ccccc1Cn1nc(-c2ncccn2)c2c1CCCCC2 [Compound I-18]	B (B represents an increase ranging from 5 fold to less than 10 fold)	C (C represents an increase ranging from 10 fold to less than 20 fold)
O=S1(=O)CCc2c(c(-c3ncccn3)nn2Cc2ccccc2F)C1 [Compound I-19]	A (A represents no increase or an increase ranging from more than 0 fold to less than 5 fold)	A (A represents no increase or an increase ranging from more than 0 fold to less than 5 fold)
CC1(C)CC(=O)c2c(-c3ncccn3)nn(Cc3ccccc3F)c2C1 [Compound I-20]	A (A represents no increase or an increase ranging from more than 0 fold to less than 5 fold)	A (A represents no increase or an increase ranging from more than 0 fold to less than 5 fold)
O=C1CCCc2c1c(-c1ncccn1)nn2Cc1ccccc1F [Compound I-21]	A (A represents no increase or an increase ranging from more than 0 fold to less than 5 fold)	A (A represents no increase or an increase ranging from more than 0 fold to less than 5 fold)
COC(=O)N(Cc1ccccc1F)c1c(N)nc(-c2nn(Cc3ccccc3F)c3c2CCCC3)nc1N [Compound I-23]	C (C represents an increase ranging from 10 fold to less than 20 fold)	C (C represents an increase ranging from 10 fold to less than 20 fold)
COC(=O)N(Cc1ccccc1F)c1c(N)nc(-c2nn(Cc3ccccc3F)c3c2CCCC3)nc1NCc1ccccc1F [Compound I-24]	A (A represents no increase or an increase ranging from more than 0 fold to less than 5 fold)	A (A represents no increase or an increase ranging from more than 0 fold to less than 5 fold)
Nc1nc(-c2nn(Cc3ccccc3F)c3c2CCCC3)nc(N)c1NC(=O)OCCCl [Compound I-25]	A (A represents no increase or an increase ranging from more than 0 fold to less than 5 fold)	B (B represents an increase ranging from 5 fold to less than 10 fold)
Nc1nc(-c2nn(Cc3ccccc3F)c3c2CCCC3)nc(N)c1N1CCOC1=O [Compound I-26]	A (A represents no increase or an increase ranging from more than 0 fold to less than 5 fold)	B (B represents an increase ranging from 5 fold to less than 10 fold)
